In ChEMBL document CHEMBL3046912, “Effectiveness of 1,3-dichloropropene as an alternative to methyl bromide in rotations of tomato (Solanum lycopersicum) and cucumber (Cucumis sativus) in China” (2012):
Active and inactive are the calls of the source. The calls are words filed in the database; no cut-off is given here.

Assays:
[1] = test system: Capsella bursa-pastoris; test: Herbicidal activity against Capsella bursa-pastoris in cucumber plants fields exposed to 400 kg/ha compound fumigation treatment assessed as hand weeding time per plot relative to untreated control; assay type: functional
[2] = test system: Meloidogyne incognita; test: Nematicidal activity against Meloidogyne incognita (root-knot nematode) in cucumber growing fields exposed to 400 kg/ha compound fumigation treatment assessed as root galling index measured 20 days after compound treatment (reference value: 8.72 root galling index); assay type: functional
[3] = test system: Capsella bursa-pastoris; test: Herbicidal activity against Capsella bursa-pastoris in tomato plants fields exposed to 400 kg/ha compound fumigation treatment assessed as hand weeding time per plot (reference value: 243.3 hr/ha); assay type: functional
[4] = test system: Solanum lycopersicum; test: Increase in crop yield in Solanum lycopersicum (tomato) plants exposed to 400 kg/ha compound fumigation treatment assessed as marketable yield fruit yield (reference value: 51.3 ton/ha); assay type: functional
[5] = test system: Capsella bursa-pastoris; test: Herbicidal activity against Capsella bursa-pastoris in tomato plants fields exposed to 400 kg/ha compound fumigation treatment assessed as hand weeding time per plot relative to untreated control; assay type: functional
[6] = test system: Arenaria serpyllifolia; test: Herbicidal activity against Arenaria serpyllifolia in tomato plants fields exposed to 400 kg/ha compound fumigation treatment assessed as hand weeding time per plot relative to untreated control; assay type: functional
[7] = test system: Solanum lycopersicum; test: Increase in crop yield in Cucumis sativus (cucumber) plants exposed to 400 kg/ha compound fumigation treatment assessed as marketable yield fruit yield (reference value: 65.3 ton/ha); assay type: functional
[8] = test system: Botrytis cinerea; test: Fungicidal activity against Botryotinia fuckeliana-induced withering in tomato plants at 400 kg/ha measured 20 to 60 days post compound treatment; assay type: functional, organism-based
[9] = test system: Solanum lycopersicum; test: Increase in crop yield in Solanum lycopersicum (tomato) plants exposed to 400 kg/ha compound fumigation treatment assessed as medium fruit yield (reference value: 32.3 ton/ha); assay type: functional
[10] = test system: Phytophthora melonis; test: Fungicidal activity against Phytophthora melonis-induced blight disease in cucumber plants at 400 kg/ha measured 20 to 60 days post compound treatment; assay type: functional, organism-based
[11] = test system: Digitaria sanguinalis; test: Herbicidal activity against Digitaria sanguinalis (hairy crabgrass) in tomato plants fields exposed to 400 kg/ha compound fumigation treatment assessed as hand weeding time per plot relative to untreated control; assay type: functional
[12] = test system: Digitaria sanguinalis; test: Herbicidal activity against Digitaria sanguinalis (hairy crabgrass) in tomato plants fields exposed to 400 kg/ha compound fumigation treatment assessed as hand weeding time per plot (reference value: 243.3 hr/ha); assay type: functional
[13] = test system: Arenaria serpyllifolia; test: Herbicidal activity against Arenaria serpyllifolia in cucumber plants fields exposed to 400 kg/ha compound fumigation treatment assessed as hand weeding time per plot relative to untreated control; assay type: functional
[14] = test system: Arenaria serpyllifolia; test: Herbicidal activity against Arenaria serpyllifolia in tomato plants fields exposed to 400 kg/ha compound fumigation treatment assessed as hand weeding time per plot (reference value: 243.3 hr/ha); assay type: functional
[15] = test system: Solanum lycopersicum; test: Increase in crop yield in Solanum lycopersicum (tomato) plants exposed to 400 kg/ha compound fumigation treatment assessed as extra-large fruit yield (reference value: 3.8 ton/ha); assay type: functional
[16] = test system: Solanum lycopersicum; test: Increase in crop yield in Cucumis sativus (cucumber) plants exposed to 400 kg/ha compound fumigation treatment assessed as large fruit yield (reference value: 19.5 ton/ha); assay type: functional
[17] = test system: Meloidogyne incognita; test: Nematicidal activity against Meloidogyne incognita (root-knot nematode) in tomato growing fields exposed to 400 kg/ha compound fumigation treatment assessed as root galling index measured 20 days after compound treatment (reference value: 8.51 root galling index); assay type: functional
[18] = test system: Cucumis sativus; test: Increase in plant height of Cucumis sativus (cucumber) exposed to 400 kg/ha compound fumigation treatment measured 30 days after compound treatment (reference value: 85.6 cm); assay type: functional
[19] = test system: Digitaria sanguinalis; test: Herbicidal activity against Digitaria sanguinalis (hairy crabgrass) in cucumber plants fields exposed to 400 kg/ha compound fumigation treatment assessed as hand weeding time per plot (reference value: 258.3 hr/ha); assay type: functional
[20] = test system: Solanum lycopersicum; test: Increase in crop yield in Cucumis sativus (cucumber) plants exposed to 400 kg/ha compound fumigation treatment assessed as extra-large fruit yield (reference value: 7.2 ton/ha); assay type: functional
[21] = test system: Capsella bursa-pastoris; test: Herbicidal activity against Capsella bursa-pastoris in cucumber plants fields exposed to 400 kg/ha compound fumigation treatment assessed as hand weeding time per plot (reference value: 258.3 hr/ha); assay type: functional
[22] = test system: Arenaria serpyllifolia; test: Herbicidal activity against Arenaria serpyllifolia in cucumber plants fields exposed to 400 kg/ha compound fumigation treatment assessed as hand weeding time per plot (reference value: 258.3 hr/ha); assay type: functional
[23] = test system: Solanum lycopersicum; test: Increase in plant height of Solanum lycopersicum (tomato) exposed to 400 kg/ha compound fumigation treatment measured 50 days after compound treatment (reference value: 86.2 cm); assay type: functional
[24] = test system: Digitaria sanguinalis; test: Herbicidal activity against Digitaria sanguinalis (hairy crabgrass) in cucumber plants fields exposed to 400 kg/ha compound fumigation treatment assessed as hand weeding time per plot relative to untreated control; assay type: functional
[25] = test system: Solanum lycopersicum; test: Increase in plant height of Solanum lycopersicum (tomato) exposed to 400 kg/ha compound fumigation treatment measured 30 days after compound treatment (reference value: 28.4 cm); assay type: functional
[26] = test system: Solanum lycopersicum; test: Increase in crop yield in Cucumis sativus (cucumber) plants exposed to 400 kg/ha compound fumigation treatment assessed as medium fruit yield (reference value: 38.6 ton/ha); assay type: functional
[27] = test system: Cucumis sativus; test: Increase in plant height of Cucumis sativus (cucumber) exposed to 400 kg/ha compound fumigation treatment measured 50 days after compound treatment (reference value: 103.2 cm); assay type: functional
[28] = test system: Solanum lycopersicum; test: Increase in crop yield in Solanum lycopersicum (tomato) plants exposed to 400 kg/ha compound fumigation treatment assessed as large fruit yield (reference value: 15.2 ton/ha); assay type: functional

Structure (SMILES): CBr [BROMOMETHANE]
- Activity [1]: 45%
- Root_galling_index [2]: 3.24
- Time [3]: 35.2 hr/ha
- Crop_yield [4]: 76.6 tons/ha
- Activity [5]: 45%
- Activity [6]: 45%
- Crop_yield [7]: 101.9 tons/ha
- Activity [8]: Active
- Crop_yield [9]: 46.6 tons/ha
- Activity [10]: Active
- Activity [11]: 45%
- Time [12]: 35.2 hr/ha
- Activity [13]: 45%
- Time [14]: 35.2 hr/ha
- Crop_yield [15]: 8.3 tons/ha
- Crop_yield [16]: 32.3 tons/ha
- Root_galling_index [17]: 3.54
- Activity [18]: 108.6 cm
- Time [19]: 41.9 hr/ha
- Crop_yield [20]: 14.3 tons/ha
- Time [21]: 41.9 hr/ha
- Time [22]: 41.9 hr/ha
- Activity [23]: 118.7 cm
- Activity [24]: 45%
- Activity [25]: 43.5 cm
- Crop_yield [26]: 55.3 tons/ha
- Activity [27]: 132.6 cm
- Crop_yield [28]: 21.7 tons/ha
